Square brackets hold non-standard residues; d marks the D form. Peptide text beside a SMILES is read from it. * marks the point of attachment. Octanoyl = CCCCCCCC(=O)*; Aib = CC(C)(N)C(=O)O; Octyl = CCCCCCCC*
target: T1, rat GHS-receptor (GHR-R) (Rattus norvegicus, UniProt O08725); assay: Ca-releasing activity (increase in intracellular calcium) in CHO-GHSR62 cells, FLIPR; type: cell-based; details: CHO-GHSR62 cells (CHO cells expressing rat GHS receptor), FLIPR; read-out: Ca-releasing activity EC50
T1 construct: A full-length cDNA for rat GHR-R was obtained by RT-PCR; expressed in transfected cells
Description: To assay an increase in the intracellular calcium ion concentration (Ca-releasing activity) occurring upon binding of a GH secretagogue (GHS) to GHS-receptor (GHR-R), a cell strain expressing rat GHR-R was created in the following manner. A full-length cDNA for rat GHR-R was obtained by RT-PCR (reverse transcriptase-polymerase chain reaction) where a cDNA derived from rat brain was used as template. From the nucleotide sequence of known rat GHR-R [K. K. Mckee, et al, Molecular Endocrinology 11, 415-423 (1997)], sense and antisense primers consisting of the following nucleotide sequences were synthesized.
The amplified cDNA was ligated to vector pcDNAIII (Invitrogen) to construct expression vector GHSR-pcDNAIII. CHO cells were transformed via the expression vector, and the transformed cells stably expressing GHR-R were selected in a medium containing 1 μg/ml G418. […] A change in the intracellular calcium ion concentration (Ca-releasing activity) was measured by an FLIPR system (Molecular Device). Before this measurement, 4×10^4 CHO-GHSR62 cells were put to a 96-well microplate with black wall (Corning Co., Ltd) and cultured for 12 to 15 hours. Then, the cells were incubated with 4 μM fluorescent Fluo4 (Molecular Probe Co., Ltd) for 1 hour and washed four times with Hank's BSS (Hank's Balanced Salt Solution) containing 20 mM Hepes ([N-2-hydroxyethyl]-piperazine-N-[2-ethanesulfonic acid]) and 2.5 mM probenecid, and the Ca-releasing activity was assayed by adding a sample and measuring a change in the fluorescence.
Peptide fragments obtained by partially digested the rat- and human-derived ghrelins by various proteases, or chemically synthesized peptides, were examined for their Ca releasing activity in order to determine a core amino acid sequence and the optimum chain length of a modifying fatty acid necessary for Ca-releasing activity.
The Ca-increasing activities of the ghrelin derivative peptide-type compounds synthesized in Example 10 and the natural ghrelin peptide were measured in the same manner as in Example 1.
In this examination, the intracellular Ca-releasing activity in CHO cells expressing rat GSH receptor was used as the indicator.

T1 sequence (O08725 whole entry): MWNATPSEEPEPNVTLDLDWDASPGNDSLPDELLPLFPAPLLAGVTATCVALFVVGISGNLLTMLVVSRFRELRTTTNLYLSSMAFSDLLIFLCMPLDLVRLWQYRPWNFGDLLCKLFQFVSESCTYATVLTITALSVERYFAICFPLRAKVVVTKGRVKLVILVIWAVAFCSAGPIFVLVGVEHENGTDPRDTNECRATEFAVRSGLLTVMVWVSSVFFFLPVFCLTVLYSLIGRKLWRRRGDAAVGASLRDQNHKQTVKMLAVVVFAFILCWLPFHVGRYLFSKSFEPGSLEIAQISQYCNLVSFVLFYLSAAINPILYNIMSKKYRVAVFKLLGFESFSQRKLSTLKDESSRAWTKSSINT

Going from `CCCCCCCCCCCCCCCC(=O)OC[C@H](NC(=O)[C@H](CO)NC(=O)CN)C(=O)N[C@@H](Cc1ccccc1)C(=O)N[C@@H](CC(C)C)C(=O)N[C@@H](CO)C(=O)N1CCC[C@H]1C(=O)N[C@@H](CCC(=O)O)C(=O)N[C@@H](Cc1c[nH]cn1)C(=O)N[C@@H](CCC(N)=O)C(=O)N[C@@H](CCCCN)C(=O)N[C@@H](C)C(=O)N[C@@H](CCC(N)=O)C(=O)N[C@@H](CCC(N)=O)C(=O)N[C@@H](CCCNC(=N)N)C(=O)N[C@@H](CCCCN)C(=O)N[C@@H](CCC(=O)O)C(=O)N[C@@H](CO)C(=O)N[C@@H](CCCCN)C(=O)N[C@@H](CCCCN)C(=O)N1CCC[C@H]1C(=O)N1CCC[C@H]1C(=O)N[C@@H](C)C(=O)N[C@@H](CCCCN)C(=O)N[C@@H](CC(C)C)C(=O)N[C@@H](CCC(N)=O)C(=O)N1CCC[C@H]1C(=O)N[C@@H](CCCNC(=N)N)C(=O)O` [Compound 14, [Ser^3(Palmitoyl)]-rGhrelin] to `CCCCCCCC(=O)O[C@H](C)[C@H](NC(=O)[C@H](CO)NC(=O)CN)C(=O)N[C@@H](Cc1ccccc1)C(=O)N[C@@H](CC(C)C)C(=O)N[C@@H](CO)C(=O)N1CCC[C@H]1C(=O)N[C@@H](CCC(=O)O)C(=O)N[C@@H](Cc1c[nH]cn1)C(=O)N[C@@H](CCC(N)=O)C(=O)N[C@@H](CCCNC(=N)N)C(=O)N[C@H](C(=O)N[C@@H](CCC(N)=O)C(=O)N[C@@H](CCC(N)=O)C(=O)N[C@@H](CCCNC(=N)N)C(=O)N[C@@H](CCCCN)C(=O)N[C@@H](CCC(=O)O)C(=O)N[C@@H](CO)C(=O)N[C@@H](CCCCN)C(=O)N[C@@H](CCCCN)C(=O)N1CCC[C@H]1C(=O)N1CCC[C@H]1C(=O)N[C@@H](C)C(=O)N[C@@H](CCCCN)C(=O)N[C@@H](CC(C)C)C(=O)N[C@@H](CCC(N)=O)C(=O)N1CCC[C@H]1C(=O)N[C@@H](CCCNC(=N)N)C(=O)O)C(C)C` [Compound 59, [Thr^3(Octanoyl)]-hGhrelin], the EC50 rises from 6.5 nM to 10 nM (1.5-fold).

Going from `CCCCCCCC(=O)OC[C@H](NC(=O)CN)C(=O)N[C@@H](Cc1ccccc1)C(=O)N[C@@H](CC(C)C)C(=O)N[C@@H](CO)C(=O)N1CCC[C@H]1C(N)=O` [Compound 43, [N-Glycyl]-Ghrelin (3-7)-amide] (H-GS(Octanoyl)FLSP-NH2) to `CCCCCCCC(=O)OC[C@H](NC(=O)[C@H](CC(C)C)NC(=O)CN)C(=O)N[C@@H](Cc1ccccc1)C(=O)N[C@@H](CC(C)C)C(=O)N[C@@H](CO)C(=O)N1CCC[C@H]1C(N)=O` [Compound 44, [Leu^2]-Ghrelin (1-7)-amide] (H-GLS(Octanoyl)FLSP-NH2), the EC50 falls from 380 nM to 42 nM (9-fold).

Compared with `CCCCCCCC(=O)OC[C@H](NC(=O)[C@H](CO)NC(=O)CNC(C)=O)C(=O)N[C@@H](Cc1ccccc1)C(=O)N[C@@H](CC(C)C)C(=O)N[C@@H](CO)C(=O)N1CCC[C@H]1C(=O)N[C@@H](CCC(=O)O)C(=O)N[C@@H](Cc1c[nH]cn1)C(=O)N[C@@H](CCC(N)=O)C(=O)O` [Compound 41, [N-Acetyl]-Ghrelin (1-10)], `CCCCCCCC(=O)OC[C@H](NC(=O)[C@H](CO)NC(=O)CN)C(=O)N[C@@H](Cc1ccccc1)C(=O)N[C@@H](CC(C)C)C(=O)N[C@@H](CO)C(=O)N1CCC[C@H]1C(=O)N[C@@H](CCC(=O)O)C(N)=O` [Compound 28, Ghrelin (1-8)-amide] is lower in EC50: over 10000 nM for the first, 13 nM for the second.

Compared with `CCCCCCCCOC[C@@H](NC(=O)[C@H](Cc1c[nH]cn1)NC(=O)C(C)(C)N)C(=O)N[C@H](Cc1ccccc1)C(=O)N[C@@H](CCCCN)C(N)=O` [Compound 79, [Aib^1, His^2, ^DSer^3(Octyl), ^DPhe^4, Lys^5]-Ghrelin (1-5)-amide] (H-[Aib]H[dS](Octyl)[dF]K-NH2), `CCCCCCCCOC[C@@H](NC(=O)CCCCN)C(=O)N[C@H](Cc1ccccc1)C(=O)N[C@@H](CCCCN)C(N)=O` [Compound 77, [N-Aminopentanoyl, ^DSer^3(Octyl), ^DPhe^4, Lys^5]-Ghrelin (3-5)-amide] is 42-fold higher in EC50: 38 nM for the first, 1600 nM for the second.

Going from `CCCCCCCC(=O)OC[C@H](NC(=O)[C@H](CO)NC(=O)CN)C(=O)N[C@@H](Cc1ccccc1)C(=O)N[C@@H](CC(C)C)C(=O)N[C@@H](CO)C(=O)N1CCC[C@H]1C(=O)N[C@@H](CCC(=O)O)C(=O)N[C@@H](Cc1c[nH]cn1)C(=O)N[C@@H](CCC(N)=O)C(=O)N[C@@H](CCCNC(=N)N)C(=O)N[C@H](C(=O)N[C@@H](CCC(N)=O)C(=O)N[C@@H](CCC(N)=O)C(=O)N[C@@H](CCCNC(=N)N)C(=O)O)C(C)C` [Compound 20, hGhrelin (1-15)] to `CCCCCCCC(=O)NC[C@H](NC(=O)[C@H](CO)NC(=O)CN)C(=O)N[C@@H](Cc1ccccc1)C(=O)N[C@@H](CC(C)C)C(=O)N[C@@H](CO)C(=O)N1CCC[C@H]1C(=O)N[C@@H](CCC(=O)O)C(=O)N[C@@H](Cc1cnc[nH]1)C(=O)N[C@@H](CCC(N)=O)C(=O)N[C@@H](CCCNC(=N)N)C(=O)N[C@H](C(=O)N[C@@H](CCC(N)=O)C(=O)N[C@@H](CCC(N)=O)C(=O)N[C@@H](CCCNC(=N)N)C(=O)N[C@@H](CCCCN)C(=O)N[C@@H](CCC(=O)O)C(=O)N[C@@H](CO)C(=O)N[C@@H](CCCCN)C(=O)N[C@@H](CCCCN)C(=O)N1CCC[C@H]1C(=O)N1CCC[C@H]1C(=O)N[C@@H](C)C(=O)N[C@@H](CCCCN)C(=O)N[C@@H](CC(C)C)C(=O)N[C@@H](CCC(N)=O)C(=O)N1CCC[C@H]1C(=O)N[C@@H](CCCNC(=N)N)C(=O)O)C(C)C` [Compound 56, [Dap^3(Octanoyl)]-hGhrelin], the EC50 falls from 7 nM to 2.6 nM (2.7-fold).

Compared with `CCCCCCCCOC[C@@H](NC(=O)[C@H](CO)NC(=O)CN)C(=O)N[C@@H](Cc1ccccc1)C(=O)N[C@@H](CC(C)C)C(=O)N[C@@H](CO)C(=O)N1CCC[C@H]1C(N)=O` [Compound 52, [^DSer^3(Octyl)]-Ghrelin (1-7)-amide], `CCCCCCCCSC[C@H](NC(=O)[C@H](CO)NC(=O)CN)C(=O)N[C@H](Cc1ccccc1)C(=O)N[C@@H](CC(C)C)C(=O)N[C@@H](CO)C(=O)N1CCC[C@H]1C(N)=O` [Compound 49, [Cys^3(Octyl), ^DPhe^4]Ghrelin (1-7)-amide] (H-GSC(Octyl)[dF]LSP-NH2) is lower in EC50: over 10000 nM for the first, 3000 nM for the second. The second is the more potent here.

Compared with `CCCCCCCCOC[C@H](NC(=O)CCCCN)C(=O)N[C@@H](Cc1ccccc1)C(=O)N[C@@H](CC(C)C)C(N)=O` [Compound 81, [N-Aminopentanoyl, Ser^3(Octyl)]-Ghrelin (3-5)-amide], `CCCCCCCC(=O)OC[C@H](NC(=O)[C@H](CO)NC(=O)CN)C(=O)N[C@@H](Cc1ccccc1)C(=O)N[C@@H](CC(C)C)C(=O)N[C@@H](CO)C(N)=O` [Compound 30, Ghrelin (1-6)-amide] (H-GSS(Octanoyl)FLS-NH2) is 2.3-fold lower in EC50: 11 nM for the first, 4.8 nM for the second.

same assay, conditions: Table 3, Example 9: protease fragments or synthetic peptides; CHO-GHSR62 cells; read-out: Ca-releasing activity (EC50)

`CCCCCCCC(=O)OC[C@H](NC(=O)[C@H](CO)NC(=O)CN)C(=O)N[C@@H](Cc1ccccc1)C(=O)N[C@@H](CC(C)C)C(=O)N[C@@H](CO)C(=O)N1CCC[C@H]1C(=O)N[C@@H](CCC(=O)O)C(=O)N[C@@H](Cc1c[nH]cn1)C(=O)N[C@@H](CCC(N)=O)C(=O)O` [Compound 25, Ghrelin (1-10)] gave an EC50 of 19 nM.
